Source: PubChem BioAssay AID1963870 (Molecular Pharmacology Branch, DTP, NCI, 2024)
Values joined by “and” are separate entries in the source; they are usually repeats but may differ in a detail not shown here. Identical values can stand only once.

Test system: 292921-168-R-J2-PDC KRAS tumor spheroid viability
Test: Anticancer human tumor 292921-168-R-J2-PDC patient-derived pancreatic carcinoma cell line growth inhibition [KRAS2]
Details: spheroids with HUVEC and MSC; for viability, T/C: stronger effect = lower value
Description: Multicellular complex tumor spheroid response to RAS pathway inhibitors in combination with a targeted agents in patient-derived cell lines with oncogenic KRAS variants from multiple cancer types
A high-throughput screen of multi-cell type tumor spheroids was designed to identify active combinations of targeted small molecules and KRAS pathway inhibitors. Complex spheroids include a stromal component modeled by human endothelial cells (HUVEC) and fibroblasts modeled by human mesenchymal stem cells (MSCs). The concentration ranges selected for each drug and investigational agent were based upon clinically achievable concentrations if the clinical Cmax of the agent was known.
Compounds. The drugs and investigational agents: BI-3406 (NSC825286), BAY-293 (NSC824723), batoprotafib (TNO155; NSC825523), sotorasib (AMG 510; NSC818433), MRTX1257 (NSC819558), elimusertib (BAY 1895344; NSC800525), molibresib (GSK525762; NSC774829), temuterkib (LY3214996; NSC803410), venetoclax (NSC766270), alisertib (NSC759677), olaparib (NSC753686), talazoparib (NSC767125), erdafitinib (NSC781556), ipatasertib (NSC767898), cabozantinib (NSC761068), nintedanib (NSC756659), abemaciclib (NSC768073), docetaxel (NSC628503), trametinib (NSC758246), and sapanisertib (NSC764658) were obtained from the National Cancer Institute (NCI) Developmental Therapeutics Program Chemical Repository. The FDA-approved anticancer drug set is available from the Developmental Therapeutics Program. […] The stock solutions were prepared in dimethyl sulfoxide (DMSO, Sigma-Aldrich, St. Louis, MO, cat. D2650) at 800-fold the tested concentration and stored at -70 degrees C prior to their use. All drugs and investigational agents were tested over a range starting from a high concentration at or near the clinical Cmax and decreasing in half-log increments. If the clinical Cmax for an agent had not been determined, the highest concentration tested was 10 microM.
Cell Culture. All cells were maintained in an incubator at 37 degrees C and 5% CO2 with 95% humidity. The PDC lines were cultured according to standard operating procedures established by the NCI PDMR (https://pdmr.cancer.gov/sops/default.htm). Briefly, all PDCs were thawed and cultured in Matrigel-coated flasks prepared with a working solution of 1X Ham's F-12 nutrient mix, without supplementation (Invitrogen, Waltham, MA, cat. 11765054), 100 U/mL penicillin-streptomycin (Invitrogen, cat. 15140122), and 2.5% Matrigel (Corning Inc., Corning, NY, cat. 354248) for the first three passages. All PDCs were cultured in complete DMEM/F-12 media containing advanced DMEM/F-12 (Invitrogen, cat. 12634028), 4.9% defined fetal bovine serum, heat inactivated (HyClone Laboratories Inc., Logan, UT, cat. SH30070.03HI), 389 ng/mL hydrocortisone (Sigma-Aldrich, cat. H4001), 9.7 ng/mL human EGF recombinant protein (Invitrogen, cat. PHG0313), 23.4 microg/mL adenine (Sigma-Aldrich, cat. A2786), 97.3 U/mL penicillin-streptomycin (Invitrogen, cat. 15140122), 1.9 mM L-glutamine (Invitrogen, cat. 25030081), and 9.7 microM Y-27632 dihydrochloride (Tocris Bioscience, Bristol, United Kingdom, cat. 1254). The PDCs were cultured in complete DMEM/F12 media without 9.7 microM Y-27632 dihydrochloride for at least two passages prior to the screen. The established cell line HOP-62 was cultured in RPMI 1640 medium, HEPES (Invitrogen, cat. 22400105) with 10% defined fetal bovine serum (HyClone Laboratories Inc., cat. SH30070.03) and 2 mM L-glutamine (Invitrogen, cat. 25030081). The pooled donor HUVEC were cultured in endothelial cell growth medium 2 (PromoCell, Heidelberg, Germany, cat. C-22011) and the hMSC were cultured in mesenchymal stem cell growth medium 2 (PromoCell, cat. C-28009). For all experiments, HUVEC and hMSC were used at passages </=5, while the malignant cell lines were used at passages </=15. […]

[1] = curve of first compound, second compound 0.1 µM
[2] = curve of first compound, second compound 0.316 µM
[3] = curve of first compound, second compound 1 µM
[4] = curve of first compound, second compound 3.16 µM
[5] = second compound 0.1 µM, first compound 0.0316 µM
[6] = second compound 0.1 µM, first compound 0.1 µM
[7] = second compound 0.316 µM, first compound 0.0316 µM
[8] = second compound 0.316 µM, first compound 0.1 µM
[9] = second compound 1 µM, first compound 0.0316 µM
[10] = second compound 1 µM, first compound 0.1 µM
[11] = second compound 3.16 µM, first compound 0.0316 µM
[12] = second compound 3.16 µM, first compound 0.1 µM
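Note: drug exposure lasted seven days after spheroids formed for three days.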
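Throughout, for viability, T/C: percent of DMSO vehicle control viability which is 100%.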

COc1cc2nccc(Oc3ccc(NC(=O)C4(C(=O)Nc5ccc(F)cc5)CC4)cc3)c2cc1OC
viability, T/C (compound 0.0316 µM): 104% (3×) and 112% and 103%
viability, T/C (compound 0.1 µM): 99.3% [middle of 5 runs]
viability, T/C (compound 0.316 µM): 96.6% [middle of 5 runs]
viability, T/C (compound 3.16 µM): 33.9% [middle of 5 runs]
viability, T/C (compound 10 µM): 19.6% [middle of 5 runs]
IC50 (curve of compound): 2.1 µM [middle of 5 runs]

Cn1ncnc1[C@H]1c2n[nH]c(=O)c3cc(F)cc(c23)N[C@@H]1c1ccc(F)cc1 + CC1OCC2(CCN(c3cnc(Sc4ccnc(N)c4Cl)c(N)n3)CC2)C1N
IC50 [1]: > 100 nM
IC50 [2]: > 100 nM
IC50 [3]: 0.634 nM
IC50 [4]: < 0.316 nM
IC50 (curve of first compound, second compound 10 µM): < 0.316 nM
viability, T/C (second compound 0.1 µM, first compound 0.000316 µM): 84.8%
viability, T/C (second compound 0.1 µM, first compound 0.001 µM): 78.6%
viability, T/C (second compound 0.1 µM, first compound 0.00316 µM): 82.5%
viability, T/C (second compound 0.1 µM, first compound 0.01 µM): 76.4%
viability, T/C [5]: 66.3%
viability, T/C [6]: 58.2%
viability, T/C (second compound 0.316 µM, first compound 0.000316 µM): 66.1%
viability, T/C (second compound 0.316 µM, first compound 0.001 µM): 60.9%
viability, T/C (second compound 0.316 µM, first compound 0.00316 µM): 65%
viability, T/C (second compound 0.316 µM, first compound 0.01 µM): 56%
viability, T/C [7]: 59.4%
viability, T/C [8]: 51.9%
viability, T/C (second compound 1 µM, first compound 0.000316 µM): 48.7%
viability, T/C (second compound 1 µM, first compound 0.001 µM): 51.7%
viability, T/C (second compound 1 µM, first compound 0.00316 µM): 49.2%
viability, T/C (second compound 1 µM, first compound 0.01 µM): 44.4%
viability, T/C [9]: 39.2%
viability, T/C [10]: 39.1%
viability, T/C (second compound 3.16 µM, first compound 0.000316 µM): 40.8%
viability, T/C (second compound 3.16 µM, first compound 0.001 µM): 39%
viability, T/C (second compound 3.16 µM, first compound 0.00316 µM): 37.4%
viability, T/C (second compound 3.16 µM, first compound 0.01 µM): 36.2%
viability, T/C [11]: 33.4%
viability, T/C [12]: 30.8%
viability, T/C (second compound 10 µM, first compound 0.000316 µM): 34.5%
viability, T/C (second compound 10 µM, first compound 0.001 µM): 34.5%
viability, T/C (second compound 10 µM, first compound 0.00316 µM): 32%
viability, T/C (second compound 10 µM, first compound 0.01 µM): 30.6%
viability, T/C (second compound 10 µM, first compound 0.0316 µM): 29.5%
viability, T/C (second compound 10 µM, first compound 0.1 µM): 26.5%

Cn1nccc1Nc1nccc(-c2cc3c(s2)C(C)(C)N(CCN2CCOCC2)C3=O)n1 + C=CC(=O)N1CCN(c2nc(OCC3CCCN3C)nc3c2CCN(c2cccc4cccc(C)c24)C3)CC1CC#N
IC50 (curve of first compound, second compound 0.0316 µM): 93.1 nM
IC50 [1]: 77.8 nM
IC50 [2]: 59 nM
IC50 [3]: < 31.6 nM
IC50 [4]: < 31.6 nM
viability, T/C (second compound 0.0316 µM, first compound 0.0316 µM): 86.7%
viability, T/C (second compound 0.0316 µM, first compound 0.1 µM): 47.5%
viability, T/C (second compound 0.0316 µM, first compound 0.316 µM): 20.6%
viability, T/C (second compound 0.0316 µM, first compound 1 µM): 13%
viability, T/C (second compound 0.0316 µM, first compound 3.16 µM): 11.6%
viability, T/C (second compound 0.0316 µM, first compound 10 µM): 11.9%
viability, T/C [5]: 80.2%
viability, T/C [6]: 41.4%
viability, T/C (second compound 0.1 µM, first compound 0.316 µM): 21.6%
viability, T/C (second compound 0.1 µM, first compound 1 µM): 12.5%
viability, T/C (second compound 0.1 µM, first compound 3.16 µM): 11.1%
viability, T/C (second compound 0.1 µM, first compound 10 µM): 11.6%
viability, T/C [7]: 63.5%
viability, T/C [8]: 38.6%
viability, T/C (second compound 0.316 µM, first compound 0.316 µM): 16.2%
viability, T/C (second compound 0.316 µM, first compound 1 µM): 12.2%
viability, T/C (second compound 0.316 µM, first compound 3.16 µM): 9.88%
viability, T/C (second compound 0.316 µM, first compound 10 µM): 11.9%
viability, T/C [9]: 30.9%
viability, T/C [10]: 18.4%
viability, T/C (second compound 1 µM, first compound 0.316 µM): 8.49%
viability, T/C (second compound 1 µM, first compound 1 µM): 8.54%
viability, T/C (second compound 1 µM, first compound 3.16 µM): 7.25%
viability, T/C (second compound 1 µM, first compound 10 µM): 8.46%
viability, T/C [11]: 0.45%
viability, T/C [12]: 0.11%
viability, T/C (second compound 3.16 µM, first compound 0.316 µM): 0.11%
viability, T/C (second compound 3.16 µM, first compound 1 µM): 0.1%
viability, T/C (second compound 3.16 µM, first compound 3.16 µM): 0.1%
viability, T/C (second compound 3.16 µM, first compound 10 µM): 0.16%
